Measurements: ChEMBL document CHEMBL4020806, “Evaluation of the antiprotozoan properties of 5'-norcarbocyclic pyrimidine nucleosides” (Bioorg Med Chem Lett, 2017)

These compounds were tested on Trypanosoma brucei (assay: Antiprotozoal activity against bloodstream form of wild type Trypanosoma brucei after 16 hrs by Alamar Blue assay). Conditions: not given.
Type: functional

Row | SMILES | EC50 [µM]
1 | Cc1cc(C)cc(C(=O)O[C@@H]2C=C[C@H](n3ccc(=O)n(C(=O)c4cc(C)cc(C)c4)c3=O)C2)c1 | 23.8
2 | O=C(O[C@@H]1C=C[C@H](n2ccc(=O)n(C(=O)c3cc(Cl)cc(Cl)c3)c2=O)C1)c1cc(Cl)cc(Cl)c1 | 31.8
3 | O=c1[nH]c(=O)n([C@H]2C=C[C@@H](O)C2)cc1Nc1ccccc1 | 28.1
4 | O=C(O[C@@H]1C=C[C@H](n2ccc(=O)n(Cc3ccccc3)c2=O)C1)c1ccccc1 | 29.1
5 | O=C(O[C@@H]1C=C[C@H](n2cc(Br)c(=O)[nH]c2=O)C1)c1ccccc1 | 29.8
6 | COc1ccc(Cn2c(=O)cc(C)n([C@H]3C=C[C@@H](OC(=O)c4ccccc4)C3)c2=O)cc1 | 30.5
7 | O=c1[nH]cc(F)c(=O)[nH]1 [FLUOROURACIL] | 66
8 | Cc1cc(=O)[nH]c(=O)n1[C@H]1C=C[C@@H](O)C1 | 35.1

Each compound was assayed on Trypanosoma brucei (assay: Antiprotozoal activity against bloodstream form of multi-drug resistant Trypanosoma brucei B48 after 16 hrs by Alamar Blue assay). Conditions: B48, 16 h.
Type: functional

Row | SMILES | EC50 [µM]
9 | Cc1cc(C)cc(C(=O)O[C@@H]2C=C[C@H](n3ccc(=O)n(C(=O)c4cc(C)cc(C)c4)c3=O)C2)c1 | 21.9
10 | O=C(O[C@@H]1C=C[C@H](n2ccc(=O)n(C(=O)c3cc(Cl)cc(Cl)c3)c2=O)C1)c1cc(Cl)cc(Cl)c1 | 33.9
11 | O=c1[nH]c(=O)n([C@H]2C=C[C@@H](O)C2)cc1Nc1ccccc1 | 30
12 | O=C(O[C@@H]1C=C[C@H](n2ccc(=O)n(Cc3ccccc3)c2=O)C1)c1ccccc1 | 25.5
13 | O=C(O[C@@H]1C=C[C@H](n2cc(Br)c(=O)[nH]c2=O)C1)c1ccccc1 | 23.9
14 | COc1ccc(Cn2c(=O)cc(C)n([C@H]3C=C[C@@H](OC(=O)c4ccccc4)C3)c2=O)cc1 | 27.2
15 | O=c1[nH]cc(F)c(=O)[nH]1 [FLUOROURACIL] | 74.6
16 | Cc1cc(=O)[nH]c(=O)n1[C@H]1C=C[C@@H](O)C1 | 38.7

Each compound was assayed on Trypanosoma brucei (assay: Antiprotozoal activity against PYR6-5 deficient bloodstream form of 5-FU hypersensitive Trypanosoma brucei after 16 hrs by Alamar Blue assay). Conditions: not given.
Type: functional

Row | SMILES | EC50 [µM]
17 | Cc1cc(C)cc(C(=O)O[C@@H]2C=C[C@H](n3ccc(=O)n(C(=O)c4cc(C)cc(C)c4)c3=O)C2)c1 | 24.4
18 | O=C(O[C@@H]1C=C[C@H](n2ccc(=O)n(C(=O)c3cc(Cl)cc(Cl)c3)c2=O)C1)c1cc(Cl)cc(Cl)c1 | 29.5
19 | O=c1[nH]c(=O)n([C@H]2C=C[C@@H](O)C2)cc1Nc1ccccc1 | 21.4
20 | O=C(O[C@@H]1C=C[C@H](n2ccc(=O)n(Cc3ccccc3)c2=O)C1)c1ccccc1 | 27.7
21 | O=C(O[C@@H]1C=C[C@H](n2cc(Br)c(=O)[nH]c2=O)C1)c1ccccc1 | 25.3
22 | COc1ccc(Cn2c(=O)cc(C)n([C@H]3C=C[C@@H](OC(=O)c4ccccc4)C3)c2=O)cc1 | 28.3
23 | O=c1[nH]cc(F)c(=O)[nH]1 [FLUOROURACIL] | 2.3
24 | Cc1cc(=O)[nH]c(=O)n1[C@H]1C=C[C@@H](O)C1 | 32.2

What follows are compounds tested on Trypanosoma brucei (assay: Antiprotozoal activity against bloodstream form of 5FU resistant Trypanosoma brucei after 16 hrs by Alamar Blue assay). Conditions: not given.
Type: functional

Row | SMILES | EC50 [µM]
25 | Cc1cc(C)cc(C(=O)O[C@@H]2C=C[C@H](n3ccc(=O)n(C(=O)c4cc(C)cc(C)c4)c3=O)C2)c1 | 20.2
26 | O=C(O[C@@H]1C=C[C@H](n2ccc(=O)n(C(=O)c3cc(Cl)cc(Cl)c3)c2=O)C1)c1cc(Cl)cc(Cl)c1 | 25
27 | O=c1[nH]c(=O)n([C@H]2C=C[C@@H](O)C2)cc1Nc1ccccc1 | 13.8
28 | O=C(O[C@@H]1C=C[C@H](n2ccc(=O)n(Cc3ccccc3)c2=O)C1)c1ccccc1 | 21
29 | O=C(O[C@@H]1C=C[C@H](n2cc(Br)c(=O)[nH]c2=O)C1)c1ccccc1 | 17.7
30 | COc1ccc(Cn2c(=O)cc(C)n([C@H]3C=C[C@@H](OC(=O)c4ccccc4)C3)c2=O)cc1 | 20.3
31 | O=c1[nH]cc(F)c(=O)[nH]1 [FLUOROURACIL] | 3900
32 | Cc1cc(=O)[nH]c(=O)n1[C@H]1C=C[C@@H](O)C1 | 28.8

Each compound was assayed on Trypanosoma brucei (assay: Resistance factor, ratio of EC50 for multi-drug resistant Trypanosoma brucei B48 to EC50 for wild type Trypanosoma brucei). Conditions: not given.
Type: functional

Row | SMILES | Ratio EC50
33 | Cc1cc(C)cc(C(=O)O[C@@H]2C=C[C@H](n3ccc(=O)n(C(=O)c4cc(C)cc(C)c4)c3=O)C2)c1 | 0.9
34 | O=C(O[C@@H]1C=C[C@H](n2ccc(=O)n(C(=O)c3cc(Cl)cc(Cl)c3)c2=O)C1)c1cc(Cl)cc(Cl)c1 | 1.1
35 | O=c1[nH]c(=O)n([C@H]2C=C[C@@H](O)C2)cc1Nc1ccccc1 | 1.1
36 | O=C(O[C@@H]1C=C[C@H](n2ccc(=O)n(Cc3ccccc3)c2=O)C1)c1ccccc1 | 0.9
37 | O=C(O[C@@H]1C=C[C@H](n2cc(Br)c(=O)[nH]c2=O)C1)c1ccccc1 | 0.8
38 | COc1ccc(Cn2c(=O)cc(C)n([C@H]3C=C[C@@H](OC(=O)c4ccccc4)C3)c2=O)cc1 | 0.9
39 | O=c1[nH]cc(F)c(=O)[nH]1 [FLUOROURACIL] | 1.1
40 | Cc1cc(=O)[nH]c(=O)n1[C@H]1C=C[C@@H](O)C1 | 1.1

These compounds were tested on Trypanosoma brucei (assay: Resistance factor, ratio of EC50 for PYR6-5 deficient bloodstream form of 5-FU hypersensitive Trypanosoma brucei to EC50 for wild type Trypanosoma brucei). Conditions: not given.
Type: functional

Row | SMILES | Ratio EC50
41 | Cc1cc(C)cc(C(=O)O[C@@H]2C=C[C@H](n3ccc(=O)n(C(=O)c4cc(C)cc(C)c4)c3=O)C2)c1 | 1.03
42 | O=C(O[C@@H]1C=C[C@H](n2ccc(=O)n(C(=O)c3cc(Cl)cc(Cl)c3)c2=O)C1)c1cc(Cl)cc(Cl)c1 | 0.93
43 | O=c1[nH]c(=O)n([C@H]2C=C[C@@H](O)C2)cc1Nc1ccccc1 | 0.76
44 | O=C(O[C@@H]1C=C[C@H](n2ccc(=O)n(Cc3ccccc3)c2=O)C1)c1ccccc1 | 0.95
45 | O=C(O[C@@H]1C=C[C@H](n2cc(Br)c(=O)[nH]c2=O)C1)c1ccccc1 | 0.85
46 | COc1ccc(Cn2c(=O)cc(C)n([C@H]3C=C[C@@H](OC(=O)c4ccccc4)C3)c2=O)cc1 | 0.93
47 | O=c1[nH]cc(F)c(=O)[nH]1 [FLUOROURACIL] | 0.034
48 | Cc1cc(=O)[nH]c(=O)n1[C@H]1C=C[C@@H](O)C1 | 0.92

Each compound was assayed on Trypanosoma brucei (assay: Resistance factor, ratio of EC50 for 5FU resistant Trypanosoma brucei to EC50 for wild type Trypanosoma brucei). Conditions: not given.
Type: functional

Row | SMILES | Ratio EC50
49 | Cc1cc(C)cc(C(=O)O[C@@H]2C=C[C@H](n3ccc(=O)n(C(=O)c4cc(C)cc(C)c4)c3=O)C2)c1 | 0.85
50 | O=C(O[C@@H]1C=C[C@H](n2ccc(=O)n(C(=O)c3cc(Cl)cc(Cl)c3)c2=O)C1)c1cc(Cl)cc(Cl)c1 | 0.79
51 | O=c1[nH]c(=O)n([C@H]2C=C[C@@H](O)C2)cc1Nc1ccccc1 | 0.49
52 | O=C(O[C@@H]1C=C[C@H](n2ccc(=O)n(Cc3ccccc3)c2=O)C1)c1ccccc1 | 0.72
53 | O=C(O[C@@H]1C=C[C@H](n2cc(Br)c(=O)[nH]c2=O)C1)c1ccccc1 | 0.59
54 | COc1ccc(Cn2c(=O)cc(C)n([C@H]3C=C[C@@H](OC(=O)c4ccccc4)C3)c2=O)cc1 | 0.66
55 | O=c1[nH]cc(F)c(=O)[nH]1 [FLUOROURACIL] | 59.17
56 | Cc1cc(=O)[nH]c(=O)n1[C@H]1C=C[C@@H](O)C1 | 0.82

What follows are compounds tested on Leishmania mexicana (assay: Antileishmanial activity against wild type Leishmania mexicana after 16 hrs by Alamar Blue assay). Conditions: not given.
Type: functional

Row | SMILES | EC50 [µM]
57 | Cc1cc(C)cc(C(=O)O[C@@H]2C=C[C@H](n3ccc(=O)n(C(=O)c4cc(C)cc(C)c4)c3=O)C2)c1 | 38.9
58 | O=C(O[C@@H]1C=C[C@H](n2ccc(=O)n(C(=O)c3cc(Cl)cc(Cl)c3)c2=O)C1)c1cc(Cl)cc(Cl)c1 | 89.1
59 | O=c1[nH]c(=O)n([C@H]2C=C[C@@H](O)C2)cc1Nc1ccccc1 | 94.1
60 | O=C(O[C@@H]1C=C[C@H](n2ccc(=O)n(Cc3ccccc3)c2=O)C1)c1ccccc1 | 34.5
61 | O=C(O[C@@H]1C=C[C@H](n2cc(Br)c(=O)[nH]c2=O)C1)c1ccccc1 | 90.4
62 | COc1ccc(Cn2c(=O)cc(C)n([C@H]3C=C[C@@H](OC(=O)c4ccccc4)C3)c2=O)cc1 | 33.8
63 | O=c1[nH]cc(F)c(=O)[nH]1 [FLUOROURACIL] | 7.7
64 | Cc1cc(=O)[nH]c(=O)n1[C@H]1C=C[C@@H](O)C1 | 97.7

These compounds were tested on Leishmania mexicana (assay: Antileishmanial activity against 5FU resistant Leishmania mexicana after 16 hrs by Alamar Blue assay). Conditions: not given.
Type: functional

Row | SMILES | EC50 [µM]
65 | Cc1cc(C)cc(C(=O)O[C@@H]2C=C[C@H](n3ccc(=O)n(C(=O)c4cc(C)cc(C)c4)c3=O)C2)c1 | 23.6
66 | O=C(O[C@@H]1C=C[C@H](n2ccc(=O)n(C(=O)c3cc(Cl)cc(Cl)c3)c2=O)C1)c1cc(Cl)cc(Cl)c1 | 91.4
67 | O=c1[nH]c(=O)n([C@H]2C=C[C@@H](O)C2)cc1Nc1ccccc1 | 95.3
68 | O=C(O[C@@H]1C=C[C@H](n2ccc(=O)n(Cc3ccccc3)c2=O)C1)c1ccccc1 | 46.3
69 | O=C(O[C@@H]1C=C[C@H](n2cc(Br)c(=O)[nH]c2=O)C1)c1ccccc1 | 91.9
70 | COc1ccc(Cn2c(=O)cc(C)n([C@H]3C=C[C@@H](OC(=O)c4ccccc4)C3)c2=O)cc1 | 43.6
71 | O=c1[nH]cc(F)c(=O)[nH]1 [FLUOROURACIL] | 2470
72 | Cc1cc(=O)[nH]c(=O)n1[C@H]1C=C[C@@H](O)C1 | 102

The compounds below were run on Leishmania mexicana (assay: Resistance factor, ratio of EC50 for 5FU resistant Leishmania mexicana to EC50 for wild type Leishmania mexicana). Conditions: not given.
Type: functional

Row | SMILES | Ratio EC50
73 | Cc1cc(C)cc(C(=O)O[C@@H]2C=C[C@H](n3ccc(=O)n(C(=O)c4cc(C)cc(C)c4)c3=O)C2)c1 | 0.61
74 | O=C(O[C@@H]1C=C[C@H](n2ccc(=O)n(C(=O)c3cc(Cl)cc(Cl)c3)c2=O)C1)c1cc(Cl)cc(Cl)c1 | 1.03
75 | O=c1[nH]c(=O)n([C@H]2C=C[C@@H](O)C2)cc1Nc1ccccc1 | 1.01
76 | O=C(O[C@@H]1C=C[C@H](n2ccc(=O)n(Cc3ccccc3)c2=O)C1)c1ccccc1 | 1.34
77 | O=C(O[C@@H]1C=C[C@H](n2cc(Br)c(=O)[nH]c2=O)C1)c1ccccc1 | 1.02
78 | COc1ccc(Cn2c(=O)cc(C)n([C@H]3C=C[C@@H](OC(=O)c4ccccc4)C3)c2=O)cc1 | 1.29
79 | O=c1[nH]cc(F)c(=O)[nH]1 [FLUOROURACIL] | 322
80 | Cc1cc(=O)[nH]c(=O)n1[C@H]1C=C[C@@H](O)C1 | 1.04
